Source: patent publication US7524485B2, “Skin lightening agents, compositions and methods” (Unilever Home & Personal Care, USA, Division of Conopco, …, priority 2002, dated 2009)
Where two headings read alike, the source gives them in different places.

Molecular target: T1, mushroom tyrosinase
T1 construct: mushroom tyrosinase (Sigma T-7755)
Test: Mushroom Tyrosinase Assay
Assay type: biochemical
Details: L-DOPA substrate, pH 7.0, absorbency 475 nm, vs ethanol control
Procedure: Mushroom tyrosinase inhibition is indicative of reduction in melanin synthesis, thereby showing skin lightening effect.
Into each well of a 96-well plate, 150 microliters of phosphate buffer (100 mM, pH 7.0), 10 microliters of L-DOPA (L-3, 4-Dihydroxyphenylalanine, 10 mM), and 20 microliters of skin lightening agent (dissolved in ethanol, which is the control) were added. Following an initial measurement of background absorbency at 475-nm, 20 microliters of mushroom tyrosinase (Sigma T-7755; 6050 units/ml) was added and incubated at room temperature.
Absorbency is read at 475-nm over the following time points: 0, 2, 4, and 6.5 minutes. The data is plotted as 475-nm absorbency vs. time (minutes) and the slope of the line is calculated (ΔAbs 475 nm/min).

[1] = Experiment 1, read-out: IC50 (Concentration) Experiment 1
[2] = Experiment 2, read-out: IC50 (Concentration) Experiment 2

Row | SMILES | IC50 [1] | IC50 [2]
1 | CCc1ccc(O)cc1O [4-Ethyl Resorcinol, reference compound] | 550 nM | 400 nM
2 | Oc1ccc(C2SCCS2)c(O)c1 [5-member Di-Thianyl Resorcinol, 4-[2′-(1′,3′-dithiacyclopenty)]-1,3-dihydroxybenzene] | 3800 nM | 2500 nM
3 | Oc1ccc(C2SCCCS2)c(O)c1 [6-member Di-Thianyl Resorcinol, 4-[2′-(1′,3′-dithiacyclohexy)]-1,3-dihydroxybenzene] | 1700 nM | 1000 nM
